According to article PMC1664607 (PLoS Medicine, 2006):
Values joined by “and” are separate entries in the source; they are usually repeats but may differ in a detail not shown here. Equal entries are not always repeated.

Tested on: clinically isolated M. tuberculosis
Assay: microbe, parasite or virus in culture
Type: cell-based

C[C@]1(COc2ccc(N3CCC(Oc4ccc(OC(F)(F)F)cc4)CC3)cc2)Cn2cc([N+](=O)[O-])nc2O1 [OPC-67683, (R)-2-methyl-6-nitro-2-(4-[4-(4-trifluoromethoxyphenoxy)piperidin-1-yl]phenoxymethyl}-2,3-dihydroimidazo[2,1-b]oxazole]
Cross-resistance with the currently used anti-TB drugs: no cross-resistance
MIC90: 0.0134 µg/mL and 0.01221 µg/mL and 0.01279 µg/mL and 0.01341 µg/mL
